Laboratory results from paper PMC10804683, “Identification of the pyridoxal 5′‐phosphate allosteric site in human pyridox(am)ine 5′‐phosphate oxidase” (Protein Science : A Publication of the Protein Society, 2024).
Residue numbers refer to the chain shown, from its start. Where “and” joins values, the source holds several entries; their conditions need not be identical. Equal entries are not always repeated. Entries after “also recorded” stand apart in the source; their conditions may differ.

Tests used:
[1] = target: T1, human PNPO 1-31del variant (Homo sapiens, UniProt Q9NVS9); assay: PLP binding by DSF, 1-31del; conditions: 50 mM Na-HEPES pH 7.6, 2 μM enzyme
T1 construct: a main form corresponding to the entire protein; made in house; host or cells: E. coli BL21(DE3)
T1 sequence (Q9NVS9 32-261): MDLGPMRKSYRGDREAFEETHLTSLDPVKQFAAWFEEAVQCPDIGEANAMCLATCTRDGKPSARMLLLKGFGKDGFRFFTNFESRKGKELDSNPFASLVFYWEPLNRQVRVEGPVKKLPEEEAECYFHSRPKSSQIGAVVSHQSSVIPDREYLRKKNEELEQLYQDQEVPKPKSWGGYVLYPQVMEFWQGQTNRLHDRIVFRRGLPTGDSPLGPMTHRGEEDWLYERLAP
Protocol: FIGURE 2 DSF measurements with F48A (a), F48A/E50L/R258L (b), F48A/E50L/H248N/R258L (c), and 1‐31del PNPO variants in the presence of different PLP concentrations. Upper panels: Fluorescence change is expressed as fractional variation as a function of temperature. The experiment was carried out using 2 μM enzyme and different PLP concentrations (0, 0.78, 1.56, 3.13, 6.25, 12.5, 25, and 50 μM). Thermal denaturation data are fitted to the Boltzmann equation to obtain melting temperatures. Each curve is the average of three independent experiments with standard error bars. Lower panels: Saturation curves obtained by plotting the melting temperatures as a function of the PLP concentration. […] (μM)' of each lower plot.

[2] = target: T2, human PNPO F48A/E50L/H248N/R258L variant (Homo sapiens, UniProt Q9NVS9, E50L/F48A/H248N/R258L); assay: PLP binding by DSF, quadruple variant; conditions: 50 mM Na-HEPES pH 7.6, 2 μM enzyme
T2 construct: a main form corresponding to the entire protein; made in house; host or cells: E. coli BL21(DE3)
T2 sequence (Q9NVS9 1-261 F48A/E50L/H248N/R258L): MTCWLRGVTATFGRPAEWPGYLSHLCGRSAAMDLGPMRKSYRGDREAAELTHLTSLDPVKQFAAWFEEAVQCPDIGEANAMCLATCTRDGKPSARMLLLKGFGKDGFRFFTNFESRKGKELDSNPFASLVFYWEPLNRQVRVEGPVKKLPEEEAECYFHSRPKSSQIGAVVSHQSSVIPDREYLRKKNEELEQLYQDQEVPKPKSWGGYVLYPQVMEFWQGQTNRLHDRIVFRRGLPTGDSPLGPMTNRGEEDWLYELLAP
Excerpt: (§1) PLP binding to PNPO can be detected and quantitatively measured using differential scanning fluorimetry (DSF) and also by measuring FMN fluorescence changes. We had previously attributed DSF changes to PLP binding at the active site, while FMN fluorescence changes were attributed to PLP binding at the allosteric site (Barile et al., [2019], [2020]). Previous experiments carried out with the PNPO R161C variant, affecting a residue that is essential for substrate binding and catalysis (and therefore also for PLP binding at the active site), confirms that DSF measurements only report PLP binding at the active site (Barile et al., [2021]; Table 1). […] We expected to observe no FMN fluorescence changes upon titration of the variants with PLP. However, this was not the case, and the dissociation constant values obtained by observing the FMN fluorescence emission were only up to threefold larger in the variants with respect to wild type PNPO (Figure 3). […] To check the second possibility, we measured intrinsic fluorescence changes of wild type and variant apo‐forms (i.e., without FMN) upon PLP titration. […]
FIGURE 2 DSF measurements with F48A (a), F48A/E50L/R258L (b), F48A/E50L/H248N/R258L (c), and 1‐31del PNPO variants in the presence of different PLP concentrations. Upper panels: Fluorescence change is expressed as fractional variation as a function of temperature. […]

[3] = target: T3, apo-PNPO F48A/E50L/R161C/R258L (Homo sapiens, UniProt Q9NVS9, E50L/F48A/R161C/R258L); assay: PLP binding by intrinsic fluorescence, apo F48A/E50L/R161C/R258L; conditions: excitation 280 nm, 100 nM enzyme
T3 construct: together with a main form corresponding to the entire protein (estimated molecular mass of 31.0 ± 0.7 kDa); made in house; host or cells: E. coli BL21(DE3)
T3 sequence (Q9NVS9 1-261 F48A/E50L/R161C/R258L): T2 sequence (Q9NVS9 1-261 F48A/E50L/H248N/R258L) with R161C, N248H
Excerpt: as §1
(§2) Analyses of PLP binding, based on FMN fluorescence increase observed upon binding of PLP to PNPO, were performed as described in Barile et al. ([2020]). […] Emission spectra were recorded from […], with excitation and emission slits set at 3 and 5 nm, respectively. […]

apo-PNPO wt = target: T4, apo-PNPO wt (Homo sapiens, UniProt Q9NVS9); assay: PLP binding by intrinsic fluorescence, apo wild type; conditions: intrinsic fluorescence 335–345 nm, excitation 280 nm, 100 nM enzyme, read-out: Apo-enzyme PLP binding KD^FLUO
T4 construct: a main form corresponding to the entire protein; made in house; host or cells: E. coli BL21(DE3)
T4 sequence (Q9NVS9 1-261): T2 sequence (Q9NVS9 1-261 F48A/E50L/H248N/R258L) with A48F, L50E, N248H, L258R
Excerpt: as §1, §2

Kd [1]: 3 ± 0.3 µM | Kd [2]: 6.07 µM and 6.1 µM | Kd (apo-PNPO wt): 0.6 ± 0.05 µM
Compound: Cc1ncc(COP(=O)(O)O)c(C=O)c1O [PLP, pyridoxal 5′‐phosphate]
Apo-enzyme PLP binding KD^FLUO [3]: no variation in the emitted fluorescence was observed; also recorded: No binding
